# Literature values, collected in PubChem BioAssay AID1259409 (Chemical Carcinogenesis Research Information System (CCRIS), 2018).
# System: rodent chemically induced tumor inhibition, incidence and multiplicity
# Experiment: CCRIS tumor inhibitor studies
smiles,measurement,setting,value
CN(C)CCOC(c1ccccc1)c1ccccc1,"tumour outcome (control, treated, inhibition, significance)","Carcinogen: 7,12-DIMETHYLBENZ[A]ANTHRACENE, 57-97-6, Dose [Inhibitor]: 0, 0.086 UMOL 2/WK BEGINNING 1 WK POST CARCINOGEN DOSE AND CONTINUING FOR DURATION OF STUDY (STUDY DURATION: 15 WK), Route [Inhibitor]: DERMAL, Species: MOUSE, Strain/Sex: SENCAR/FEMALE, Target Tissue: Type of Lesion: SKIN: PAPILLOMA, Dose [Carcinogen]: 10 NMOL ONCE, Promoter: 12-O-TETRADECANOYLPHORBOL-13-ACETATE, 16561-29-8","97%, 75%, 23%, not calculated"
same,"tumour outcome (control, treated, inhibition, significance)","Carcinogen: 7,12-DIMETHYLBENZ[A]ANTHRACENE, 57-97-6, Dose [Inhibitor]: 0, 0.342 UMOL 2/WK BEGINNING 1 WK POST CARCINOGEN DOSE AND CONTINUING FOR DURATION OF STUDY (STUDY DURATION: 15 WK), Route [Inhibitor]: DERMAL, Species: MOUSE, Strain/Sex: SENCAR/FEMALE, Target Tissue: Type of Lesion: SKIN: PAPILLOMA, Dose [Carcinogen]: 10 NMOL ONCE, Promoter: 12-O-TETRADECANOYLPHORBOL-13-ACETATE, 16561-29-8","97%, 80%, 18%, not calculated"
same,"tumour outcome (control, treated, inhibition, significance)","Carcinogen: 7,12-DIMETHYLBENZ[A]ANTHRACENE, 57-97-6, Dose [Inhibitor]: 0, 0.856 UMOL 2/WK BEGINNING 1 WK POST CARCINOGEN DOSE AND CONTINUING FOR DURATION OF STUDY (STUDY DURATION: 15 WK), Route [Inhibitor]: DERMAL, Species: MOUSE, Strain/Sex: SENCAR/FEMALE, Target Tissue: Type of Lesion: SKIN: PAPILLOMA, Dose [Carcinogen]: 10 NMOL ONCE, Promoter: 12-O-TETRADECANOYLPHORBOL-13-ACETATE, 16561-29-8","97%, 75%, 23%, not calculated"
same,"tumour outcome (control, treated, inhibition, significance)","Carcinogen: 7,12-DIMETHYLBENZ[A]ANTHRACENE, 57-97-6, Dose [Inhibitor]: 0, 10 MG A WK IN DRINKING WATER BEGINNING 1 WK POST CARCINOGEN DOSE AND CONTINUING FOR DURATION OF STUDY (STUDY DURATION, Route [Inhibitor]: ORAL, Species: MOUSE, Strain/Sex: SENCAR/MALE, Target Tissue: Type of Lesion: SKIN: PAPILLOMA, Dose [Carcinogen]: 100 NMOL IN 200 µL ACETONE ONCE, Promoter: 12-O-TETRADECANOYLPHORBOL-13-ACETATE, 16561-29-8","95%, 98%, -3%, not calculated"
O=C(O)/C=C/c1ccc(O)c(O)c1,"tumour outcome (control, treated, inhibition, significance)","Carcinogen: 4-NITROQUINOLINE-1-OXIDE, 56-57-5, Dose [Inhibitor]: 0, 500 PPM IN DIET FOR 7 WK BEGINNING 1 WK PRIOR TO START OF CARCINOGEN TREATMENT (STUDY DURATION: 32 WK), Route [Inhibitor]: ORAL, Species: RAT, Strain/Sex: F344/MALE, Target Tissue: Type of Lesion: TONGUE: PAPILLOMA, Dose [Carcinogen]: 20 PPM IN DRINKING WATER FOR 5 WK, Promoter: NONE USED","1/15 (7%), 0/15 (0%), 100%, not significant"
same,"tumour outcome (control, treated, inhibition, significance)","Carcinogen: 7,12-DIMETHYLBENZ[A]ANTHRACENE, 57-97-6, Dose [Inhibitor]: 0.5% IN POWDERED DIET BEGINNING 1 WK POST CARCINOGEN DOSE FOR 51 WK (STUDY DURATION: 52 WK), Route [Inhibitor]: ORAL, Species: RAT, Strain/Sex: SPRAGUE-DAWLEY/FEMALE, Target Tissue: Type of Lesion: EAR DUCT: BENIGN TUMOR, Dose [Carcinogen]: 2.5 MG/100 G BW IN 0.5 ML SESAME OIL ONCE, Promoter: NONE USED","7/19 (37%), 10/19 (53%), -43%, not calculated"
same,"tumour outcome (control, treated, inhibition, significance)","Carcinogen: 7,12-DIMETHYLBENZ[A]ANTHRACENE, 57-97-6, Dose [Inhibitor]: 0.5% IN POWDERED DIET BEGINNING 1 WK POST CARCINOGEN DOSE FOR 51 WK (STUDY DURATION: 52 WK), Route [Inhibitor]: ORAL, Species: RAT, Strain/Sex: SPRAGUE-DAWLEY/FEMALE, Target Tissue: Type of Lesion: MAMMARY GLAND: CARCINOMA, Dose [Carcinogen]: 2.5 MG/100 G BW IN 0.5 ML SESAME OIL ONCE, Promoter: NONE USED","6/19 (32%), 9/19 (47%), -50%, not calculated"
same,"tumour outcome (control, treated, inhibition, significance)","Carcinogen: 7,12-DIMETHYLBENZ[A]ANTHRACENE, 57-97-6, Dose [Inhibitor]: 0.5% IN POWDERED DIET BEGINNING 1 WK POST CARCINOGEN DOSE FOR 51 WK (STUDY DURATION: 52 WK), Route [Inhibitor]: ORAL, Species: RAT, Strain/Sex: SPRAGUE-DAWLEY/FEMALE, Target Tissue: Type of Lesion: MAMMARY GLAND: FIBROADENOMA, Dose [Carcinogen]: 2.5 MG/100 G BW IN 0.5 ML SESAME OIL ONCE, Promoter: NONE USED","15/19 (79%), 11/19 (58%), 27%, not calculated"
same,"tumour outcome (control, treated, inhibition, significance)","Carcinogen: 7,12-DIMETHYLBENZ[A]ANTHRACENE, 57-97-6, Dose [Inhibitor]: 10 UMOL IN 200 µL ACETONE/DMSO (90:10) 2/WK FOR 19 WK BEGINNING 1 WK POST CARCINOGEN DOSE (STUDY DURATION: 20 WK), Route [Inhibitor]: DERMAL, Species: MOUSE, Strain/Sex: CD-1/FEMALE, Target Tissue: Type of Lesion: SKIN: PAPILLOMA, Dose [Carcinogen]: 200 NMOL IN 200 µL ACETONE ONCE, Promoter: 12-O-TETRADECANOYLPHORBOL-13-ACETATE, 16561-29-8","68%, 47%, 31%, not calculated"
same,"tumour outcome (control, treated, inhibition, significance)","Carcinogen: 7,12-DIMETHYLBENZ[A]ANTHRACENE, 57-97-6, Dose [Inhibitor]: 20 UMOL IN 200 µL ACETONE/DMSO (90:10) 2/WK FOR 19 WK BEGINNING 1 WK POST CARCINOGEN DOSE (STUDY DURATION: 20 WK), Route [Inhibitor]: DERMAL, Species: MOUSE, Strain/Sex: CD-1/FEMALE, Target Tissue: Type of Lesion: SKIN: PAPILLOMA, Dose [Carcinogen]: 200 NMOL IN 200 µL ACETONE ONCE, Promoter: 12-O-TETRADECANOYLPHORBOL-13-ACETATE, 16561-29-8","68%, 38%, 44%, not calculated"
same,"tumour outcome (control, treated, inhibition, significance)","Carcinogen: BENZO[A]PYRENE, 50-32-8, Dose [Inhibitor]: 0.06 MMOL/G OF DIET STARTING 8 D BEFORE AND CONTINUING THROUGH 3 D AFTER LAST CARCINOGEN TREATMENT (STUDY DURATION: 148, Route [Inhibitor]: ORAL, Species: MOUSE, Strain/Sex: ICR/FEMALE, Target Tissue: Type of Lesion: FORESTOMACH: NEOPLASM, Dose [Carcinogen]: 1 MG IN 0.2 ML CORN OIL 2/WK FOR 4 WK, Promoter: NONE USED","100%, 94%, 6%, not significant"
same,"tumour outcome (control, treated, inhibition, significance)","Carcinogen: N-NITROQUINOLINE-1-OXIDE, 56-57-5, Dose [Inhibitor]: 0, 500 PPM IN DIET FOR 7 WK BEGINNING 1 WK PRIOR TO START OF CARCINOGEN TREATMENT (STUDY DURATION: 32 WK), Route [Inhibitor]: ORAL, Species: RAT, Strain/Sex: F344\MALE, Target Tissue: Type of Lesion: TONGUE: CARCINOMA, Dose [Carcinogen]: 20 PPM IN DRINKING WATER FOR 5 WK, Promoter: NONE USED","9/15 (60%), 0/15 (0%), 100%, p=0.00035"
COCC(=O)[C@@]1(OC(C)=O)CC[C@H]2[C@@H]3CCC4=CC(=O)CCC4=C3[C@@H](c3ccc(N(C)C)cc3)C[C@@]21C,"tumour outcome (control, treated, inhibition, significance)","Carcinogen: 7,12-Dimethylbenz(a)anthracene (57-97-6), Dose [Inhibitor]: 1 mg administered daily for 28 days, Route [Inhibitor]: Subcutaneous, Species: Rat, Strain/Sex: Sprague-Dawley/Female, Target Tissue: Type of Lesion: Mammary gland: Adenocarcinoma and papilliary carcinoma, Dose [Carcinogen]: 10 mg/kg once at 50 days of age, Promoter: None","12/13 (92%), 9/11 (82%), 11%, ns"
same,"tumour outcome (control, treated, inhibition, significance)","Carcinogen: 7,12-Dimethylbenz(a)anthracene (57-97-6), Dose [Inhibitor]: 2 mg administered daily for 28 days, Route [Inhibitor]: Subcutaneous, Species: Rat, Strain/Sex: Sprague-Dawley/Female, Target Tissue: Type of Lesion: Mammary gland: Adenocarcinoma and papillary carcinoma, Dose [Carcinogen]: 10 mg/kg once at 50 days of age, Promoter: None","12/13 (92%), 11/12 (92%), 0%, ns"
same,"tumour outcome (control, treated, inhibition, significance)","Carcinogen: 7,12-Dimethylbenz(a)anthracene (57-97-6), Dose [Inhibitor]: 2 mg administered daily for 28 days, Route [Inhibitor]: Subcutaneous, Species: Rat, Strain/Sex: Sprague-Dawley/Female, Target Tissue: Type of Lesion: Mammary gland: Adenocarcinoma and papillary carcinoma, Dose [Carcinogen]: 10 mg/kg once at 50 days of age, Promoter: Progesterone (57-83-0)","12/13 (92%), 10/11 (91%), 0%, ns"
same,"tumour outcome (control, treated, inhibition, significance)","Carcinogen: 7,12-Dimethylbenz(a)anthracene (57-97-6), Dose [Inhibitor]: 10 mg administered daily for 28 days, Route [Inhibitor]: Subcutaneous, Species: Rat, Strain/Sex: Sprague-Dawley/Female, Target Tissue: Type of Lesion: Mammary gland: Adenocarcinoma and papillary carcinoma, Dose [Carcinogen]: 10 mg/kg once at 50 days of age, Promoter: None","12/13 (92%), 10/11 (91%), 0%, ns"
same,"tumour outcome (control, treated, inhibition, significance)","Carcinogen: 7,12-Dimethylbenz(a)anthracene (57-97-6), Dose [Inhibitor]: 10 mg administered daily for 28 days, Route [Inhibitor]: Subcutaneous, Species: Rat, Strain/Sex: Sprague-Dawley/Female, Target Tissue: Type of Lesion: Mammary gland: Adenocarcinoma and papillary carcinoma, Dose [Carcinogen]: 10 mg/kg once at 50 days of age, Promoter: Progesterone (57-83-0)","12/13 (92%), 10/12 (83%), 10%, ns"
